Among the data in ChEMBL document CHEMBL1147213, “Impact on farnesyltransferase inhibition of 4-chlorophenyl moiety replacement in the Zarnestra series” (Eur J Med Chem, 2007) are IC50 and inhibition values, retold here.

Target in one assay: not listed separately
Briefly: Inhibition of FTase by SPA. The arrangement: species or system Homo sapiens.
As usually defined, the IC50 is the midpoint of a concentration-inhibition curve. Low readings indicate inhibition by little substance, high ones a need for much substance. `CCc1nccn1C(c1ccc2c(c1)c(-c1cccc(Cl)c1)nc1nnnn12)c1cncn1C` (stereo not drawn) yielded an IC50 of 5 nM.

Compound `Cn1cncc1C(c1ccc2c(c1)c(-c1cccc(Cl)c1)nc1nnnn12)n1ccnc1-c1ccccc1` (stereo not drawn) yielded an IC50 of 1 nM.

The compound `N#Cc1ccc(Cn2cncc2C(O)c2ccc3c(c2)c(-c2cccc(Cl)c2)cc2nnnn23)cc1` (stereo not drawn) gave an IC50 of 11 nM.

Regarding `Cn1cncc1C(c1ccc2c(c1)c(-c1cccc(Cl)c1)nc1nnnn12)n1ccnc1-c1ccc(F)cc1` (stereo not drawn), the IC50 came to 4 nM.

In turn, `Cn1cncc1[C@](N)(c1ccc(Cl)cc1)c1ccc2c(c1)c(-c1cccc(Cl)c1)cc(=O)n2C` [(S)-TIPIFARNIB] yielded an IC50 of 0.9 nM.

In the case of `OC(c1ccc2c(c1)c(-c1cccc(Cl)c1)cc1nnnn12)c1cncn1Cc1ccc(Cl)cc1` (stereo not drawn), the IC50 was above 100 nM.

In turn, `Cn1cncc1C(N)(c1ccc(Cl)cc1)c1ccc2c(c1)c(-c1cccc(Cl)c1)cc1nnnn12` (stereo not drawn) came in with an IC50 of 3.5 nM.

`Cn1cncc1C(c1ccc2c(c1)c(-c1cccc(Cl)c1)nc1nnnn12)n1ccnc1-c1cccc(C#N)c1` (stereo not drawn) had an IC50 of 1 nM.

`Cn1cncc1C(N)(c1ccc(Cl)cc1)c1ccc2c(c1)c(-c1cccc(Cl)c1)nc1nnnn12` (stereo not drawn) showed an IC50 of 3.5 nM. This IC50 is about 3.5-fold higher than that of the compound before.

Turning to `Cn1cncc1C(O)(c1ccc2c(c1)c(-c1cccc(Cl)c1)nc1nnnn12)c1ccc(Cl)s1` (stereo not drawn), it took 16 nM to reach half-maximal inhibition (IC50).

With `Cn1cncc1C(N)(c1ccc2c(c1)c(-c1cccc(Cl)c1)nc1nnnn12)c1ccc(Cl)s1` (stereo not drawn), the IC50 was below 100 nM.

The next assay is filed under the species Homo sapiens. Briefly: Inhibition of FTase at 100 nM by SPA.
For orientation: inhibition means the relative decrease from the control value, in per cent. Read a high inhibition as strong suppression. In turn, `OC(c1ccc2c(c1)c(-c1cccc(Cl)c1)cc1nnnn12)c1cncn1Cc1ccc(Cl)cc1` (stereo not drawn) registered an inhibition of 32%.

The compound `Cn1cncc1C(N)(c1ccc2c(c1)c(-c1cccc(Cl)c1)nc1nnnn12)c1ccc(Cl)s1` (stereo not drawn) returned an inhibition of 69%.
